Laboratory results from US12491170B2, “Stable treprostinil prodrugs” (United Therapeutics Corporation, priority 2020, dated 2025).

Tests used:
[1] = Stability in liver microsomes, rat
[2] = Stability in cryopreserved hepatocytes, dog
[3] = Stability in liver microsomes, human
[4] = Stability in liver microsomes, dog
[5] = target: prostaglandin I2 (PGI2) receptor (IP) (Homo sapiens, UniProt P43119); assay: IP receptor cAMP agonist assay (CHO-K1 cells); format: cell-based; details: summary of findings
prostaglandin I2 (PGI2) receptor (IP), sequence (P43119 whole entry): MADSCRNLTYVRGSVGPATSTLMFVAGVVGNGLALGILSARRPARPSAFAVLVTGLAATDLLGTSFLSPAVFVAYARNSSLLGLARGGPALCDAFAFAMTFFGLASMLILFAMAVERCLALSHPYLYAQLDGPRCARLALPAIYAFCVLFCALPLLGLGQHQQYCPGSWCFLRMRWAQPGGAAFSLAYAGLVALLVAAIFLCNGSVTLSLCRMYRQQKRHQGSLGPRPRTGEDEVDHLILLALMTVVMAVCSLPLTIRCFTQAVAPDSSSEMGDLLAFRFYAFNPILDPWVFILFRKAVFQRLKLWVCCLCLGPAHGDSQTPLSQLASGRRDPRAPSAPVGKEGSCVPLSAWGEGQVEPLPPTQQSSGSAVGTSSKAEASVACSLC
In short: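 Agonist-mode cAMP accumulation in cells overexpressing the human receptor (DP1 and EP2 in HEK293T, IP in CHO-K1). Compounds were added at varying concentrations with 0.1% DMSO for 20 min at 37 °C, then cAMP was read by TR-FRET. Dose-responses were fitted to variable-slope sigmoidal curves.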

- Trep Concentration 0 min [1]: 0.0413 µM
- Trep Concentration 10 min [1]: 0.095 µM
- Trep Concentration 20 min [1]: 0.182 µM
- Trep Concentration 30 min [1]: 0.19 µM
- Trep Concentration 60 min [1]: 0.216 µM
- Treprostinil Concentration 0 min [1]: 0.0413 µM
- Treprostinil Concentration 15 min [1]: 0.095 µM
- Treprostinil Concentration 30 min [1]: 0.182 µM
- Treprostinil Concentration 60 min [1]: 0.19 µM
- Treprostinil Concentration 120 min [1]: 0.216 µM
- CLint, calculated (in parentheses) ([1]; microsomes): 0.144 mL/min/mg protein
- Half-life, calculated (in parentheses) ([1]; microsomes): 9.65 min
- AUC Mono (treprostinil formed) ([1]; rat): 10.0 µmol·min/L
- CLint ([1]; rat, microsomes): > 0.139 mL/min/mg protein
- Half-life ([1]; rat, microsomes): < 10 min
- Trep Concentration (μM) 0 min [2]: 0.0636 µM
- Trep Concentration (μM) 30 min [2]: 0.541 µM
- Trep Concentration (μM) 60 min [2]: 0.465 µM
- Trep Concentration (μM) 120 min [2]: 0.401 µM
- Treprostinil Concentration 15 min [2]: 0.671 µM
- Treprostinil Concentration 120 min [2]: 0.401 µM
- AUC ([2]; dog): 55.67 µmol·min/L
- Mono AUC (treprostinil formed) ([2]; dog): 55.7 µmol·min/L
- CLint ([2]; dog, hepatocytes): >0.0308 mL/min/mg protein
- Half-life ([2]; dog, hepatocytes): <15 min
- Trep Concentration 0 min [3]: 0.989 µM
- Trep Concentration 10 min [3]: 0.829 µM
- Trep Concentration 20 min [3]: 0.543 µM
- Trep Concentration 30 min [3]: 0.485 µM
- Trep Concentration 60 min [3]: 0.349 µM
- Treprostinil Concentration 0 min [3]: 0.989 µM
- Treprostinil Concentration 15 min [3]: 0.829 µM
- Treprostinil Concentration 30 min [3]: 0.543 µM
- Treprostinil Concentration 60 min [3]: 0.485 µM
- Treprostinil Concentration 120 min [3]: 0.349 µM
- AUC ([3]; human): 33.6 µmol·min/L
- AUC Mono (treprostinil formed) ([3]; human): 33.6 µmol·min/L
- CLint ([3]; human, microsomes): >0.139 mL/min/mg protein
- Half-life ([3]; human, microsomes): <10 min
- Trep Concentration 0 min [4]: 1.07 µM
- Trep Concentration 10 min [4]: 1.07 µM
- Trep Concentration 20 min [4]: 1.04 µM
- Trep Concentration 30 min [4]: 1.05 µM
- Trep Concentration 60 min [4]: 0.897 µM
- Treprostinil Concentration 0 min [4]: 1.07 µM
- Treprostinil Concentration 15 min [4]: 1.07 µM
- Treprostinil Concentration 30 min [4]: 1.04 µM
- Treprostinil Concentration 60 min [4]: 1.05 µM
- Treprostinil Concentration 120 min [4]: 0.897 µM
- AUC Mono (treprostinil formed) ([4]; dog): 60.9 µmol·min/L
- CLint ([4]; dog, microsomes): >0.139 mL/min/mg protein
- Half-life ([4]; dog, microsomes): <10 min
- Activity at the IP receptor compared to treprostinil [5]: inactive
Substance: treprostinil diacetate [Prodrug LXXII]
